This is an account of results in patent publication US20220256852A1, “NOVEL CRYSTALLINE FORM OF PYROXASULFONE, METHODS FOR ITS PREPARATION AND USE OF THE SAME” (ROTAM AGROCHEM INTERNATIONAL COMPANY LIMITED, priority 2021, published 2022).

The format of data set [1] is physicochemical. The protocol: Samples (S1, S2 and S3) were stored at 54° C. for 1 month, 3 months and 6 months. The procedures were followed according to CIPAC MT 46.3. The concentration of Pyroxasulfone was measured at the end of each storage time by HPLC. The aggregation was measured by observation. The original concentration of Pyroxasulfone in each formulation was 40%.

Data set [2] in a line: Dispersibility test of water dispersible granules (WG). The data set is classed as physicochemical. The note with it: summary of Table 4. The protocol:
0.3077 g of calcium carbonate and 0.092 g of magnesium oxide were dissolved in a small amount of diluted hydrochloric acid, then heated and boiled on a sand bath to remove hydrochloric acid. Distilled water was added to the remaining solution to make 10 liters in total. Subsequently, 100 ml of the obtained solution was put into a 100 ml stoppered measuring cylinder, and kept at 20° C. in a temperature-controlled room. 100 mg samples of S4 to S6 were put into the measuring cylinder, and left to stand for 30 seconds. The measuring cylinder was then turned upside down repeatedly at a rate of once a second, whereupon the turning-down frequency (number of turns) needed for disintegrating the whole water-dispersible material was counted.

As to `Cn1nc(C(F)(F)F)c(CS(=O)(=O)C2=NOC(C)(C)C2)c1OC(F)F` [3-[[[5-(difluoromethoxy)-1-methyl-3-(trifluoromethyl)-1H-pyrazol-4-yl]methyl]sulfonyl]-4,5-dihydro-5,5-dimethylisoxazole], the “storage stability compared with amorphous Pyroxasulfone” value in data set [1] is on record as “significantly higher storage stability”. Besides, the “tendency to aggregate during storage” value in data set [1] (summary of Table 5) is given as “significantly lower tendency to aggregate”. Also, the “dispersibility compared with amorphous Pyroxasulfone” value in data set [2] is given as “significantly higher dispersibility”.
